Consider 17 compounds from patent US8772287B2, “Pyrimidinyl and 1,3,5-triazinyl benzimidazole sulfonamides and their use in cancer therapy” (VetDC, Inc., priority 2009, dated 2014).

One series has as its system NZB5. In words: Cellular growth inhibition, NZB5 (3H-thymidine incorporation). It is filed as cell-based, human. As to the method:
(§1) The compounds were evaluated against two early passage human cell lines NZB5 and NZOV9 (Marshall et al., Oncol. Res. 2004, 14, 297). The cells were grown in ITS medium (α-modified minimal essential medium supplemented insulin, transferrin, selenite, and 5% fetal bovine serum) and grown on 96-well tissue culture plates under an atmosphere of 5% O2, 5% CO2, and 90% N2. Individual wells contained 500-1,000 cells (depending on the growth rate) in a volume of 150 μL. Compounds were added at 10-fold concentration steps to a maximum of 20 μM and plates were incubated for five days, with ^3H-thymidine being added over the last 6 hrs. Cells were harvested and incorporated radioactivity measured. Duplicate samples were analyzed for each compound dose with multiple control samples.
Background: Dividing cells build labelled thymidine or BrdU into new DNA.

The subject of the next series is NZOV9. In words: Cellular growth inhibition, NZOV9 (3H-thymidine incorporation). It is filed as cell-based, human. As for the experimental part:
as §1

In the next series the target is p110δ/p85 (Homo sapiens, UniProt O00329). In words: Inhibition of isolated enzyme p110δ/p85 (lipid kinase, [γ-33P]ATP, TLC). The note with it: recombinant enzyme, 100 μM ATP, nine concentrations, average of two experiments. It is filed as biochemical. As to the method:
(§2) Compounds were evaluated for their ability to inhibit Class I PI 3-kinase enzymes p110δ/p85, p110α/p85, and p110β/p85. Reaction mixtures comprising 0.1 μg of a recombinant enzyme, 10 μg of L-α-phosphatidylinositol, and 2× Lipid Kinase Buffer (40 mM Tris-HCl, pH 7.4, 200 mM NaCl, 1 mM EDTA), which contains either DMSO only as a control or the test compound in DMSO (the final DMSO concentration is 1%), were activated by the addition of an ATP mix (5 mM MgCl2, 100 μM ATP, and 0.1 μL [γ^33P]ATP). Reactions were incubated at room temperature for 1 hr, and then stopped by the addition of 1M HCl. The lipids were then extracted using a two step procedure. Firstly, 200 μL of chloroform/methanol (1:1) was added, the biphasic reactions mixed and centrifuged briefly, and the inorganic phase was removed and discarded. Following this, 80 μL of methanol:HCl (1:1) was added and the same procedure followed. The organic phase (70 μL) was then transferred to a clean 1.6 mL tube and the reactions were dried using a Speedvac, with no heating, for 30 min. The reactions were spotted onto TLC plates (Merck Ltd) and developed for 1 hr in propanol-1:2 M acetic acid (13:7). The TLC plates were then dried at room temperature and quantified using a phosphorimager (StormImager, Amersham). Nine compound concentrations were used for each test compound to determine its IC50 value. Each experiment was performed twice and the average IC50 value is used herein.

In another series the target is p110α/p85 (Homo sapiens, UniProt P42336). In words: Inhibition of isolated enzyme p110α/p85 (lipid kinase, [γ-33P]ATP, TLC). It is filed as biochemical. To be noted: recombinant enzyme, 100 μM ATP, nine concentrations, average of two experiments. As for the experimental part: as §2
Chain of p110α/p85 (P42336 whole entry): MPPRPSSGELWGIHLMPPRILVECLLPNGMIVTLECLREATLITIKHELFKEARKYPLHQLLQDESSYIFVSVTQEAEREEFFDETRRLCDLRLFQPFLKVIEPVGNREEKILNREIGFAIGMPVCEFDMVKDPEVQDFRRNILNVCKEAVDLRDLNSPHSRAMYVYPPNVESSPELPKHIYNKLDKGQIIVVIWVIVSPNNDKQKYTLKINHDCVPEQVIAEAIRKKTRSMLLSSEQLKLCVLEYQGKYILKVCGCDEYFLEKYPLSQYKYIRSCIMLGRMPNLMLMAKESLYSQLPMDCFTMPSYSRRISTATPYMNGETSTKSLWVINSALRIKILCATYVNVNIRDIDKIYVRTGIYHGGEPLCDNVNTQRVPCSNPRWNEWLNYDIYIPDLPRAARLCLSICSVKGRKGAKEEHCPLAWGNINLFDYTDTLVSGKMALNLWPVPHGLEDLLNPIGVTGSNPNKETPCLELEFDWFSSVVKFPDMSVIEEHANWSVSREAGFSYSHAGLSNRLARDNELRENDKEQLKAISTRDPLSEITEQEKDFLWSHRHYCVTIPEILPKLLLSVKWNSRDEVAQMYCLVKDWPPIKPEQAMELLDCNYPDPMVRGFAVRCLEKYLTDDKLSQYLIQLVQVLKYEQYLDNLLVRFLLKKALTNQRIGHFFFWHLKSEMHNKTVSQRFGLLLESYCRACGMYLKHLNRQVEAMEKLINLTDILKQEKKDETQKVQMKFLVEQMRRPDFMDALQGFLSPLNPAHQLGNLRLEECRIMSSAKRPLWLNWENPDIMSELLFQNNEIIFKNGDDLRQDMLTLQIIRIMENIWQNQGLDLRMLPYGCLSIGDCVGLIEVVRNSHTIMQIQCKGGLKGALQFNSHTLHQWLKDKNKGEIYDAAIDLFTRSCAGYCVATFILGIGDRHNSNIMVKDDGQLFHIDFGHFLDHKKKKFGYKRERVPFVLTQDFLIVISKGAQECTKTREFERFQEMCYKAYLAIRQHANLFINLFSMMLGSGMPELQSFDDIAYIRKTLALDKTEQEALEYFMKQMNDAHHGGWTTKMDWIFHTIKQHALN
Chain of p110α/p85 (P27986 whole entry partner): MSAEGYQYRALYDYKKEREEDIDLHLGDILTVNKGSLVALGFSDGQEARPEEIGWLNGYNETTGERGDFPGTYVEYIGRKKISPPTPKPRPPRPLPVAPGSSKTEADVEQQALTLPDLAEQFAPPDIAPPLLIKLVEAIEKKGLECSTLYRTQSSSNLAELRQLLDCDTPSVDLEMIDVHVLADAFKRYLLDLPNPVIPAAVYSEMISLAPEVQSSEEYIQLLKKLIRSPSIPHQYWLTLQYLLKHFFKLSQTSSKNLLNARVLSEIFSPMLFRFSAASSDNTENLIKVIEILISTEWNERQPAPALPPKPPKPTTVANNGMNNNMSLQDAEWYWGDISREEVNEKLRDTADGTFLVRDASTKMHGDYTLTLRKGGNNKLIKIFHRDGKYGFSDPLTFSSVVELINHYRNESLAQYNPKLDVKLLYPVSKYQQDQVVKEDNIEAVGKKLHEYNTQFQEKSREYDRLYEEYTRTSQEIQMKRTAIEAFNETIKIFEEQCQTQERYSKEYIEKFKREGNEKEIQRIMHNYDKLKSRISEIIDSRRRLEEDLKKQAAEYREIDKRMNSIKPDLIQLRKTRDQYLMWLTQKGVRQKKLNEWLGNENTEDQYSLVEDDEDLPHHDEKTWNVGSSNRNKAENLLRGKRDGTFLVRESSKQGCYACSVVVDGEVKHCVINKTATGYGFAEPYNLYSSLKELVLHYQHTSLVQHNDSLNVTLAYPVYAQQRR
Setting [1] is: Homo sapiens, NZB5, read-out: Cell IC50 NZB5.
[2] abbreviates: Homo sapiens, NZOV9, read-out: Cell IC50 NZOV9.

Read-outs that look alike come from different tables or passages of the source.

Chain of p110δ/p85 (O00329 whole entry, species assumed): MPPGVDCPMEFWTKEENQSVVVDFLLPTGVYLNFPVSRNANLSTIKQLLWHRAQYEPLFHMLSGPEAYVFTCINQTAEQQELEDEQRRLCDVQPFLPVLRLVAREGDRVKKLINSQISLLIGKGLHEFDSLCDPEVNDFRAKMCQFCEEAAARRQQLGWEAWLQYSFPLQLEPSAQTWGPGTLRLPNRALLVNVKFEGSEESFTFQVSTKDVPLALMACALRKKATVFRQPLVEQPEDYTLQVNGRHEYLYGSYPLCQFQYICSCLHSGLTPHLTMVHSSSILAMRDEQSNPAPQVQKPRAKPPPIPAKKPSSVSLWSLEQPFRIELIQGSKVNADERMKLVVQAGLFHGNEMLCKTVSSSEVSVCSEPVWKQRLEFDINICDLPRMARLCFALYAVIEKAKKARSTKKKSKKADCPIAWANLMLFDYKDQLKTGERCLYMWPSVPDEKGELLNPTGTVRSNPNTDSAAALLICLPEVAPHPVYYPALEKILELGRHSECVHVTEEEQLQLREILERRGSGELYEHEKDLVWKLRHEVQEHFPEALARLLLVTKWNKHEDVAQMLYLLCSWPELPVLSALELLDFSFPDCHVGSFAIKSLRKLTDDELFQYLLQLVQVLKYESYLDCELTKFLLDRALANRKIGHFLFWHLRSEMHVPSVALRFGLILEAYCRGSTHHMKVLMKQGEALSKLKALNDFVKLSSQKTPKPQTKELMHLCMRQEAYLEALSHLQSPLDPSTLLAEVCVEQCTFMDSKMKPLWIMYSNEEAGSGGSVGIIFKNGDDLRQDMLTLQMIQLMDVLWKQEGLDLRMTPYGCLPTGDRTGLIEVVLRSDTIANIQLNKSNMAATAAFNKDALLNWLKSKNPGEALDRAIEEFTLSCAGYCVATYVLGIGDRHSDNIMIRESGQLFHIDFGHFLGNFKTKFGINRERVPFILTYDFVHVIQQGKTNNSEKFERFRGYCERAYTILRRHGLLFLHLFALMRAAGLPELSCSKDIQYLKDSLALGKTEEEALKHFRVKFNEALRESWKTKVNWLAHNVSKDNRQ
Chain of p110δ/p85 (P27986 whole entry partner, species assumed): as the sequence (P27986 whole entry partner) above

As usually defined, the IC50 is the concentration that gives 50% inhibition. As usually defined, the melting point is the temperature of the solid-liquid transition. In turn, `COc1cccc2c1nc(C(F)F)n2-c1nc(N2CCOCC2)nc(N2CCN(S(C)(=O)=O)CC2)n1` [Example 2, 2-(difluoromethyl)-4-methoxy-1-[4-[4-(methylsulfonyl)-1-piperazinyl]-6-(4-morpholinyl)-1,3,5-triazin-2-yl]-1H-benzimidazole] gave a melting point of 311 to 314 °C. In addition, in the series with NZB5 (setting [1]), the concentration for half-maximal inhibition (IC50) fell in the range of 100 to 1000 nM. In addition, the half-inhibitory concentration (IC50) in the series on NZOV9 (setting [2]) is 100 to 1000 nM.
Compound `COc1cccc2c1nc(C(F)F)n2-c1nc(N[C@@H]2CCN(S(C)(=O)=O)C2)nc(N2CCOCC2)n1` [Example 32, 4-[2-(difluoromethyl)-4-methoxy-1H-benzimidazol-1-yl]-N-[(3R)-1-(methylsulfonyl)pyrrolidinyl]-6-(4-morpholinyl)-1,3,5-triazin-2-amine] registered a melting point of 260 to 261 °C. The half-maximal inhibitory concentration (IC50) in the series with NZB5 (setting [1]) is 100 to 1000 nM. For the same compound, the IC50 with NZOV9 (setting [2]) was below 100 nM.
In the same order, the values of `COc1cccc2c1nc(C(F)F)n2-c1nc(N2CCOCC2)nc(N2CCC(N(C)S(C)(=O)=O)C2)n1` (stereo in doubt) [Example 37, N-{(3R)-1-[4-[2-(difluoromethyl)-4-methoxy-1H-benzimidazol-1-yl]-6-(4-morpholinyl)-1,3,5-triazin-2-yl]pyrrolidinyl}-N-methylmethanesulfonamide] are 242 to 244 °C, 100 to 1000 nM and below 100 nM.
The compound `COc1cccc2c1nc(C(F)F)n2-c1nc(N2CCOCC2)nc(N2CCCC(NS(C)(=O)=O)C2)n1` (stereo in doubt) [Example 46, N-{(3S)-1-[4-[2-(difluoromethyl)-4-methoxy-1H-benzimidazol-1-yl]-6-(4-morpholinyl)-1,3,5-triazin-2-yl]piperidinyl}methanesulfonamide] displayed a melting point of 220 to 221 °C. Besides, in the series with NZB5 (setting [1]), the IC50 lay within 100 to 1000 nM. In the series on NZOV9 (setting [2]), the IC50 is below 100 nM.
Consider `COc1cccc2c1nc(C(F)F)n2-c1nc(-c2ccc(S(=O)(=O)N3CCN(C)CC3)cc2)nc(N2CCOCC2)n1` [Example 95, 2-(difluoromethyl)-4-methoxy-1-[4-{4-[(4-methyl-1-piperazinyl)sulfonyl]phenyl}-6-(4-morpholinyl)-1,3,5-triazin-2-yl]-1H-benzimidazole], for which the IC50 at p110δ/p85 is above 1000 nM.
As for `COc1cccc2c1nc(C(F)F)n2-c1nc(N[C@H]2CCCN(S(C)(=O)=O)C2)nc(N2CCOCC2)n1` [Example 42, 4-[2-(difluoromethyl)-4-methoxy-1H-benzimidazol-1-yl]-N-[(3S)-1-(methylsulfonyl)piperidinyl]-6-(4-morpholinyl)-1,3,5-triazin-2-amine], the melting point was in the range of 239 to 241 °C. Moreover, in the series with NZB5 (read-out: Cell IC50 NZB5, five days incubation, 3H-thymidine over the last 6 hrs), the IC50 was in the range of 100 to 1000 nM. Moreover, the 50% inhibitory concentration (IC50) with NZOV9 (read-out: Cell IC50 NZOV9, five days incubation, 3H-thymidine over the last 6 hrs) was below 100 nM.
Compound `COc1cccc2c1nc(C(F)F)n2-c1nc(N[C@H]2CC[C@H](NS(C)(=O)=O)CC2)nc(N2CCOCC2)n1` [Example 78, trans-N-(4-{[4-[2-(difluoromethyl)-4-methoxy-1H-benzimidazol-1-yl]-6-(4-morpholinyl)-1,3,5-triazin-2-yl]amino}cyclohexyl)methanesulfonamide] had a melting point of 269 to 272 °C. Also, the IC50 with NZB5 (setting [1]) was 100 to 1000 nM. Besides, the IC50 in the series with NZOV9 (setting [2]) was below 100 nM.
`COc1cccc2c1nc(C(F)F)n2-c1nc(N2CCOCC2)nc(N(C)[C@@H]2CCN(S(C)(=O)=O)C2)n1` [Example 33, 4-[2-(difluoromethyl)-4-methoxy-1H-benzimidazol-1-yl]-N-methyl-N-[(3R)-1-(methylsulfonyl)pyrrolidinyl]-6-(4-morpholinyl)-1,3,5-triazin-2-amine] came in with a melting point of 238 to 240 °C. The concentration for half-maximal inhibition (IC50) in the series on NZB5 (setting [1]) is below 100 nM. For the same compound, the IC50 with NZOV9 (setting [2]) was below 100 nM.
The compound `COc1cccc2c1nc(C(F)F)n2-c1nc(N[C@@H]2CCCN(S(C)(=O)=O)C2)nc(N2CCOCC2)n1` [Example 40, 4-[2-(difluoromethyl)-4-methoxy-1H-benzimidazol-1-yl]-N-[(3R)-1-(methylsulfonyl)piperidinyl]-6-(4-morpholinyl)-1,3,5-triazin-2-amine] gave a melting point of 241 to 243 °C. Moreover, in the series on NZB5 (setting [1]), the 50% inhibitory concentration (IC50) was 100 to 1000 nM. In addition, the half-maximal inhibitory concentration (IC50) with NZOV9 (setting [2]) was below 100 nM.
Compound `COc1cccc2c1nc(C(F)F)n2-c1nc(N2CCOCC2)nc(N2CCCC(N(C)S(C)(=O)=O)C2)n1` (stereo in doubt) [Example 45, N-{(3R)-1-[4-[2-(difluoromethyl)-4-methoxy-1H-benzimidazol-1-yl]-6-(4-morpholinyl)-1,3,5-triazin-2-yl]piperidinyl}-N-methylmethanesulfonamide] had a melting point of 224 to 226 °C. In addition, the IC50 in the series with NZB5 (setting [1]) is 100 to 1000 nM. Besides, the half-inhibitory concentration (IC50) in the series on NZOV9 (setting [2]) was below 100 nM.
`COc1cccc2c1nc(C(F)F)n2-c1nc(OC2CCN(S(=O)(=O)CCN3CCN(S(C)(=O)=O)CC3)CC2)nc(N2CCOCC2)n1` [Example 52, 2-(difluoromethyl)-4-methoxy-1-[4-{[1-({2-[4-(methylsulfonyl)-1-piperazinyl]ethyl}sulfonyl)-4-piperidinyl]oxy}-6-(4-morpholinyl)-1,3,5-triazin-2-yl]-1H-benzimidazole] showed a melting point of 251 to 254 °C. Besides, the concentration for half-maximal inhibition (IC50) in the series on NZB5 (Homo sapiens, NZB5, five days incubation, 3H-thymidine over the last 6 hrs, read-out: Cell IC50 NZB5) is above 1000 nM. Further, the concentration for half-maximal inhibition (IC50) with NZOV9 (Homo sapiens, NZOV9, five days incubation, 3H-thymidine over the last 6 hrs, read-out: Cell IC50 NZOV9) was above 1000 nM.
On to `COc1cccc2c1nc(C(F)F)n2-c1nc(N2CCOCC2)nc(N2CC(NS(=O)(=O)C(F)(F)F)C2)n1` [Example 88, N-{1-[4-[2-(difluoromethyl)-4-methoxy-1H-benzimidazol-1-yl]-6-(4-morpholinyl)-1,3,5-triazin-2-yl]-3-azetidinyl}(trifluoro)methanesulfonamide], for which the half-maximal inhibitory concentration (IC50) is below 100 nM on p110α/p85 and 100 to 1000 nM at p110δ/p85.
The compound `COc1cccc2c1nc(C(F)F)n2-c1nc(N2CCOCC2)nc(N2CCC(NS(C)(=O)=O)C2)n1` (stereo in doubt) [Example 36, N-{(3R)-1-[4-[2-(difluoromethyl)-4-methoxy-1H-benzimidazol-1-yl]-6-(4-morpholinyl)-1,3,5-triazin-2-yl]pyrrolidinyl}methanesulfonamide] showed a melting point of 290 to 292 °C. Moreover, the half-inhibitory concentration (IC50) in the series on NZB5 (setting [1]) fell in the range of 100 to 1000 nM. In addition, in the series on NZOV9 (setting [2]), the IC50 was below 100 nM.
In turn, `COc1cccc2c1nc(C(F)F)n2-c1nc(N2CCOCC2)nc(N2CCC(NS(C)(=O)=O)C2)n1` (stereo in doubt) [Example 38, N-{(3S)-1-[4-[2-(difluoromethyl)-4-methoxy-1H-benzimidazol-1-yl]-6-(4-morpholinyl)-1,3,5-triazin-2-yl]pyrrolidinyl}methanesulfonamide] had a melting point of 290 to 292 °C. Also, the half-maximal inhibitory concentration (IC50) in the series on NZB5 (setting [1]) fell in the range of 100 to 1000 nM. Further, the half-inhibitory concentration (IC50) in the series on NZOV9 (setting [2]) was below 100 nM.
Regarding `COc1cccc2c1nc(C(F)F)n2-c1nc(N2CCOCC2)nc(N2CCCC(N(C)S(C)(=O)=O)C2)n1` (stereo in doubt) [Example 47, N-{(3S)-1-[4-[2-(difluoromethyl)-4-methoxy-1H-benzimidazol-1-yl]-6-(4-morpholinyl)-1,3,5-triazin-2-yl]piperidinyl}-N-methylmethanesulfonamide], the melting point lay in the range of 221 to 223 °C. For the same compound, the half-inhibitory concentration (IC50) in the series on NZB5 (setting [1]) is 100 to 1000 nM. Moreover, the IC50 in the series on NZOV9 (setting [2]) was below 100 nM.
Regarding `COc1cccc2c1nc(C(F)F)n2-c1nc(N2CCOCC2)nc(N2CCC(N(C)S(C)(=O)=O)C2)n1` (stereo in doubt) [Example 39, N-{(3S)-1-[4-[2-(difluoromethyl)-4-methoxy-1H-benzimidazol-1-yl]-6-(4-morpholinyl)-1,3,5-triazin-2-yl]pyrrolidinyl}-N-methylmethanesulfonamide], the melting point was 244 to 247 °C. For the same compound, in the series with NZB5 (setting [1]), the IC50 was in the range of 100 to 1000 nM. Also, the concentration for half-maximal inhibition (IC50) in the series with NZOV9 (setting [2]) was below 100 nM.
For `COc1cccc2c1nc(C(F)F)n2-c1nc(N2CCOCC2)nc(N2CCCC(NS(C)(=O)=O)C2)n1` (stereo in doubt) [Example 44, N-{(3R)-1-[4-[2-(difluoromethyl)-4-methoxy-1H-benzimidazol-1-yl]-6-(4-morpholinyl)-1,3,5-triazin-2-yl]piperidinyl}methanesulfonamide] the same measures were 220 to 221 °C, 100 to 1000 nM and below 100 nM.
